According to patent US20250084121A1, “BIOREACTIVE COMPOSITIONS AND METHODS OF USE THEREOF” (The Regents of the University of California, priority 2018, published 2025):

Columns and labels:
[1] = tested on: HeLa-EGFP-182TAG reporter cells; test: FACS analysis of Uaa incorporation into EGFP-182TAG reporter cells; assay type: cell-based
Protocol: (§1) FSY incorporation into proteins in mammalian cells was tested. HeLa-EGFP-182TAG reporter cells were transfected with plasmid pMP-FSYRS-3×tRNA, which expresses FSYRS and tRNA^Pyl genes. Wang et al, Nat. Neurosci., 10:1063-1072 (2007). Suppression of the 182TAG codon would produce full-length EGFP rendering cells fluorescent. After transfection, cells were incubated with FSY of various concentrations at 37° C. for 24 or 48 h followed by flow cytometry. […] The fluorescence intensity increased with FSY concentration and incubation time (FIG. 2B, FIG. 7). As a positive control, p-azido-L-phenylalanine (AzF) was incorporated into reporter cells in parallel using plasmid pIre-Azi3, which is the most efficient Uaa incorporation system in mammalian cells in our hands. Coin et al, Cell, 155:1258-1269 (2013). […] No fluorescence signal was detected when FSY was not added.
FACS analysis of Uaa incorporation into HeLa-GFP-182TAG reporter cells: One day before transfection, 4.5×10^4 HeLa-EGFP-182TAG reporter cells (Wang et al, Nat. Neurosci., 10:1063-1072 (2007)) were seeded in a Greiner bio-one 24 well-cell culture dish containing 500 μL of DMEM media with 10% FBS, and incubated at 37° C. in a CO2 incubator. […] The cells were resuspended in 300 μL of FACS buffer (1×PBS, 2% FBS, 1 mM EDTA, 0.1% sodium azide, […]) and analyzed by BD LSRFortessa™ cell analyzer.

[2] = tested on: HeLa-EGFP-182TAG reporter cells; test: Cell viability assay with various concentrations of FSY; assay type: cell-based
[3] = tested on: HeLa-EGFP-182TAG reporter cells; test: Fluorescence confocal microscopy of reporter cells; assay type: cell-based; details: in the presence of FSY
Protocol: as §1, with “(2013). FSY incorporation compared favorably with AzF, reaching 76% of the AzF level. […] Chen et al, J. Am. Chem. Soc., 138:7353-7364 (2016).” for “(2013).”
Fluorescence confocal microscopy of HeLa-EGFP-182TAG reporter cells: One day before transfection, 4.5×10^4 HeLa-EGFP-182TAG cells were seeded in a Greiner bio-one CELLview glass bottom dish containing 500 μL of DMEM media with 10% FBS, and incubated at 37° C. in a CO2 incubator. […]

293T cells = test: Cell viability assay with various concentrations of FSY; assay type: cell-based
E. coli DH10B cells = test: Growth curve of E. coli DH10B cells in the presence or absence of FSY; assay type: cell-based; details: 1 mM FSY, 37° C.
Protocol: FIG. 6 provides a growth curve of E. coli DH10B cells at 37° C. in the presence or absence of 1 mM FSY. The experiments were repeated for three times.
The incorporation specificity of FSY into proteins in E. coli was evaluated. The Zspa affibody (Afb) gene containing a TAG codon at position 36 (Afb-36TAG) was co-expressed with the tRNA^Pyl/FSYRS pair in E. coli. In the absence of FSY, no full-length Afb was detected; when 1 mM FSY was added in growth media, full-length Afb36FSY was produced with a yield of 1.6 mg/L (FIG. 1C). The purified Afb36FSY was analyzed by electrospray ionization time-of-flight mass spectrometry (ESI-TOF MS) (FIG. 1D). A peak observed at 7855.96 Da corresponds to intact Afb containing FSY at site 36 (Afb36FSY: expected 7856.69 Da). A peak measured at 7724.77 Da corresponds to Afb36FSY lacking the initiating Met (Afb36FSY-Met: expected 7725.50 Da). […] FSY was also incorporated at position 24 of the Z protein and analyzed with tandem MS.

[4] = molecular target: T1, extracellular domain of the hGH receptor (Homo sapiens, UniProt P10912); test: Covalent crosslinking of hGH with the extracellular domain of hGH receptor (Western blot); assay type: binding; details: PBS buffer, different durations of time, Western blot anti-Hisx6
T1 construct: incubated with the extracellular domain of the hGH receptor
T1 sequence (P10912 19-264): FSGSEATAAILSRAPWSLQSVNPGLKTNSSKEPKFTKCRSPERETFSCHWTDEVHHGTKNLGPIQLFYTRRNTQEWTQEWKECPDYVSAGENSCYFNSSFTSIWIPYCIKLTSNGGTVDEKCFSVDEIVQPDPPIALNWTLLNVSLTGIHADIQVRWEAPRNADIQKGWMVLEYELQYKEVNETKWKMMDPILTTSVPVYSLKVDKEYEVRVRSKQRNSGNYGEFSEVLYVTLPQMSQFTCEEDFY

[5] = tested on: STAT5 phosphorylation in BAF3 cells, a cell line with hGH receptor expression; test: pSTAT5 production in BAF3 cells upon stimulation by hGH (Western blot); assay type: cell-based; details: Western blot of cell lysates
From the text: It was also examined whether FSY incorporation into hGH would affect its biological activity. Upon hGH binding with its receptor, STAT5 is phosphorylated as a downstream signal via the JAK/STAT pathway, leading to transcription of genes important for cell immunity, proliferation, and apoptosis (Waters, M J. et al. Clin. Exp. Pharmacol. Physiol. 1999, 10760-764). The inventors stimulated BAF3 cells, a cell line with hGH receptor expression, with hGH(WT) and hGH(FSY), and then probed pSTAT5 expression using Western blot analysis of cell lysates.

Compound	FSY incorporation relative to the AzF level ([1]; EGFP-182TAG suppression in HeLa reporter cells, AzF as positive control) [%]	EGFP fluorescence by flow cytometry ([1]; cells transfected with pMP-FSYRS-3×tRNA, FSY at 37° C. for 24 or 48 h)	toxicity to HeLa cells [2]	cell morphology [3]	toxicity to 293T cells (293T cells)	E. coli growth (cytotoxicity) (E. coli DH10B cells)	covalent crosslinking with the hGH receptor (band at ~50 kD) [4]	stimulation of STAT5 phosphorylation [5]
N[C@@H](Cc1ccc(OS(=O)(=O)F)cc1)C(=O)O [FSY, fluorosulfate-L-tyrosine]	76	Strong EGFP fluorescence	no obvious toxicity	remained normal	no obvious toxicity	did not affect E. coli growth	–	–
hGH(FSY): Human growth hormone with FSY genetically incorporated at site 68	–	–	–	–	–	–	covalently crosslinked	the same effect of stimulating STAT5 phosphorylation as the hGH(WT)
